In assay [1] the target is T1, c-Abl kinase domain (Mus musculus, UniProt P00520).
T1 sequence (P00520 242-493 limits assumed): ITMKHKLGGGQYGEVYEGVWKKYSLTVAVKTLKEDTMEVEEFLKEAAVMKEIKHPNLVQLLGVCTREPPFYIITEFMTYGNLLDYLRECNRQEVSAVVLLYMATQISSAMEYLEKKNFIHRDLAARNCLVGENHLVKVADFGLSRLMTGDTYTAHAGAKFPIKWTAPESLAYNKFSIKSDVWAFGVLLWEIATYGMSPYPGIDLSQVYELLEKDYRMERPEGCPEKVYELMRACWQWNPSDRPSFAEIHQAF
Briefly: ADP-Quest continuous fluorimetric kinase assay (Michaelis-Menten parameters and initial rates). To be noted: peptide 100 μM, kinase 10–50 nM; Figure 2C. Format: biochemical.

Assay [2] addresses T2, c-Src kinase domain (Homo sapiens, UniProt P12931). Described as above. The format is biochemical.
The target of assay [3] is T2, c-Src kinase domain. Briefly: RP-HPLC assay to measure peptide phosphorylation kinetics. The settings on record: purified peptide substrate. Format: biochemical. The protocol: To validate the enrichment scores observed in the c-Src screening data, the phosphorylation rates were measured in vitro with the purified catalytic domain of c-Src and synthetic 11-residue peptides derived from sequences in the pTyr-Var library. […] Reactions were initiated by adding 1 mM ATP. At various time points, 100 μL aliquots were removed and quenched by the addition of EDTA to a final concentration of 25 mM. Each time point sample was analyzed by analytical RP-HPLC, monitoring absorbance at 214 nm. Forty μL of each time point was injected onto a C18 column (ZORBAX 300 SB-C18, 5 μm, 4.6x150 mm). The solvent system used was water with 0.1% trifluoroacetic acid (solvent A) and acetonitrile with 0.1% trifluoroacetic acid (solvent B). […] The fractional product peak area was plotted as a function of reaction time, and the initial linear regime of this plot was fitted to a straight line to determine a reaction rate. Rates were corrected for substrate and enzyme concentration. Reactions were done in triplicate or quadruplicate.

Assay [4] deals with T2, c-Src kinase domain. Briefly: pTyr-Var library bacterial peptide display kinase screen (enrichment scores). The format is biochemical. To be noted: for c-Src mean of log2(enrichment): mean of log2 of enrichment over R1-R4; for c-Src enrich. R1 / c-Src enrich. R3 / c-Src enrich. R4: pTyr-Var library, enrichment score; for c-Src enrich. R1: replicate 1; for c-Src enrich. R3: replicate 3; for c-Src enrich. R4: replicate 4.

Assay [5] deals with Fyn kinase domain. Described as above. To be noted: for Fyn mean of log2(enrichment): mean of log2 of enrichment over R1-R4; for Fyn enrich. R1 / Fyn enrich. R3 / Fyn enrich. R4: pTyr-Var library, enrichment score; for Fyn enrich. R1: replicate 1; for Fyn enrich. R3: replicate 3; for Fyn enrich. R4: replicate 4. The format is biochemical, human.
Assay [6] relates to Hck kinase domain. The assay is described as above. To be noted: for Hck mean of log2(enrichment): mean of log2(variant) / mean of log2(reference), R1-R4; for Hck enrich. R1 / Hck enrich. R3 / Hck enrich. R4: pTyr-Var library, enrichment score; for Hck enrich. R1: replicate 1; for Hck enrich. R3: replicate 3; for Hck enrich. R4: replicate 4. Format: biochemical, human.
In assay [7] the target is T1, c-Abl kinase domain. The description is as above. To be noted: for c-Abl mean of log2(enrichment): mean of log2 of enrichment over R1-R4; for c-Abl enrich. R1 / c-Abl enrich. R3 / c-Abl enrich. R4: pTyr-Var library, enrichment score; for c-Abl enrich. R1: replicate 1; for c-Abl enrich. R3: replicate 3; for c-Abl enrich. R4: replicate 4. The format is biochemical.
For assay [8], the system named is Jak2. Described as above. The format is biochemical, human. The settings on record: for Jak2 mean of log2(enrichment): mean of log2 of enrichment over R1-R3; for Jak2 enrich. R1 / Jak2 enrich. R3: pTyr-Var library, enrichment score; for Jak2 enrich. R1: replicate 1; for Jak2 enrich. R3: replicate 3.
The test system of assay [9] is AncSZ kinase domain. Described as above. The settings on record: for AncSZ mean of log2(enrichment): mean of log2 of enrichment over R1-R5; for AncSZ enrich. R1 / AncSZ enrich. R3 / AncSZ enrich. R4 / AncSZ enrich. R5: pTyr-Var library, enrichment score; for AncSZ enrich. R1: replicate 1; for AncSZ enrich. R3: replicate 3; for AncSZ enrich. R4: replicate 4; for AncSZ enrich. R5: replicate 5. The format is biochemical.

The subject of assay [10] is Fer kinase domain. Described as above. Format: biochemical, mouse. The settings on record: for Fer mean of log2(enrichment): mean of log2 of enrichment over R1-R4; for Fer enrich. R1 / Fer enrich. R3 / Fer enrich. R4: pTyr-Var library, enrichment score; for Fer enrich. R1: replicate 1; for Fer enrich. R3: replicate 3; for Fer enrich. R4: replicate 4.
Assay [11] relates to Fes. Described as above. The settings on record: mean of log2 of enrichment over R1-R6. The format is biochemical.
Assay [12] relates to FGFR1 kinase domain. Described as above. Format: biochemical, human. The settings on record: n = 5.
The test system of assay [13] is FGFR3 kinase domain. The description is as above. The settings on record: n = 5. Format: biochemical, human.
The subject of assay [14] is EPHB1 kinase domain. The description is as above. Format: biochemical, human. The settings on record: mean of log2 enrichment of reference peptide, n = 4.
Assay [15] deals with EPHB2 kinase domain. The assay is described as above. Format: biochemical, human. The settings on record: mean of log2 enrichment of reference peptide, n = 4.
The test system of assay [16] is MERTK kinase domain. The assay is described as above. The format is biochemical, human. To be noted: for mean of log2(reference): mean of log2 enrichment of reference peptide, n = 4.
In assay [17] the target is c-Src SH2 domain (Homo sapiens, UniProt P12931). Description: pTyr-Var library SH2 domain screen with SH2-dynabeads (enrichment scores). The settings on record: mean of log2 enrichment of reference peptide, R1-R3; sheet c-Src.
Assay [18] concerns SHP2 C-SH2 domain. The description is as above. To be noted: R1-R3.
The test system of assay [19] is Grb2 SH2 domain. The assay is described as above. The settings on record: R1-R3.
[20] abbreviates: ADP-Quest assay, c-Src kinase domain 10 nM, 100 μM ATP, 37 °C, three to five replicates, error = standard error of global Michaelis-Menten fit.

For “Ac-GPDECIYDMFPFKKKG-NH2 [Src Consensus, c-Src consensus substrate peptide from X5-Y-X5 screen]”, the “phosphorylation of consensus peptide by c-Abl (initial rate relative to cognate consensus)” value in [1] was “efficiently phosphorylated”. For the same substance, in [2] (setting [20]), the Michaelis-Menten constant (Km) was 196 ± 38 µM and the kcat was 4.9±0.4 s^–1. The “phosphorylation of consensus peptide by c-Src (initial rate relative to cognate consensus)” value in [2] (high concentration: peptide 100 μM, kinase 10–50 nM, Figure 2C) was “selective”.
Regarding Ac-IGEGTYRTVFK-NH2 [CDK5-Y15-G16R], in [3], the “Phosphorylation Rate” value came out at 0.219 s⁻¹.
Regarding Ac-SGDITYGQFAQ-NH2 [PLCG1_Y210], the “Phosphorylation Rate” value in assay [3] was 2.121 s⁻¹.
Turning to TTGLIYIGSHD [AASDH_Y870], in assay [4], the “c-Src mean of log2(enrichment)” value is on record as -1.294, the “c-Src enrich. R1” value amounted to 0.3921, the “c-Src enrich. R3” value is reported as 0.3853 and the “c-Src enrich. R4” value is 0.4379. Besides, in [5], the “Fyn mean of log2(enrichment)” value is reported as -1.48, the “Fyn enrich. R1” value is recorded as 0.4689, the “Fyn enrich. R3” value was determined as 0.3674 and the “Fyn enrich. R4” value is 0.214. Besides, in assay [6], the “Hck mean of log2(enrichment)” value is 0.4597, the “Hck enrich. R1” value stood at 0.6399, the “Hck enrich. R3” value is 0.4036 and the “Hck enrich. R4” value is listed as 0.2897. Also, in assay [7], the “c-Abl mean of log2(enrichment)” value was -1.045, the “c-Abl enrich. R1” value is given as 0.5107, the “c-Abl enrich. R3” value was determined as 0.4932 and the “c-Abl enrich. R4” value is 0.3951. In assay [8], the “Jak2 mean of log2(enrichment)” value is listed as -0.485, the “Jak2 enrich. R1” value was found to be 0.7507 and the “Jak2 enrich. R3” value worked out at 0.724. Further, in assay [9], the “AncSZ mean of log2(enrichment)” value is recorded as -0.4681, the “AncSZ enrich. R1” value came to 0.7227, the “AncSZ enrich. R3” value is reported as 0.6145 and the “AncSZ enrich. R4” value is 0.7736. For the same substance, the “AncSZ enrich. R5” value in assay [9] was found to be 0.7032. In assay [10], the “Fer mean of log2(enrichment)” value is listed as -1.298, the “Fer enrich. R1” value was 0.3587, the “Fer enrich. R3” value worked out at 0.5035 and the “Fer enrich. R4” value was 0.5633. Further, the “Fes mean of log2(enrichment)” value in assay [11] is on record as -0.4107. Moreover, in [12], the “mean of log2(reference)” value is reported as -1.189. Besides, the “mean of log2(reference)” value in [13] was -0.6492. Moreover, the “mean of log2(reference)” value in [14] was -0.5976. In addition, the “mean of log2(reference)” value in assay [15] was -0.8783. Moreover, the “mean of log2(reference)” value in assay [16] was -1.687. For the same substance, in [17], the “mean of log2(reference)” value is reported as -0.7916. Further, in assay [18], the “mean of log2(reference)” value is -0.7271. Moreover, in assay [19], the “mean of log2(reference)” value was determined as 0.04072.
With GMAHNYRNSSQ [AASS_Y188], in assay [4], the “c-Src mean of log2(enrichment)” value was -1.404, the “c-Src enrich. R1” value worked out at 0.429, the “c-Src enrich. R3” value is listed as 0.2705 and the “c-Src enrich. R4” value was 0.4776. For the same substance, in assay [5], the “Fyn mean of log2(enrichment)” value was -1.328, the “Fyn enrich. R1” value worked out at 0.4068, the “Fyn enrich. R3” value was 0.5016 and the “Fyn enrich. R4” value turned out to be 0.6969. In [6], the “Hck mean of log2(enrichment)” value is reported as 0.4135, the “Hck enrich. R1” value came out at 0.473, the “Hck enrich. R3” value is 0.3667 and the “Hck enrich. R4” value was determined as 0.3337. In addition, in [7], the “c-Abl mean of log2(enrichment)” value is -1.694, the “c-Abl enrich. R1” value is reported as 0.3586, the “c-Abl enrich. R3” value was 0.2586 and the “c-Abl enrich. R4” value came to 0.2717. In assay [8], the “Jak2 mean of log2(enrichment)” value is -1.234, the “Jak2 enrich. R1” value is listed as 0.5584 and the “Jak2 enrich. R3” value was 0.3848. For the same substance, in [9], the “AncSZ mean of log2(enrichment)” value was -0.7891, the “AncSZ enrich. R1” value is listed as 0.6022, the “AncSZ enrich. R3” value stood at 0.4422 and the “AncSZ enrich. R4” value stood at 0.5318. Also, the “AncSZ enrich. R5” value in [9] is 0.777. In addition, in assay [10], the “Fer mean of log2(enrichment)” value was -1.39, the “Fer enrich. R1” value worked out at 0.41, the “Fer enrich. R3” value was found to be 0.4208 and the “Fer enrich. R4” value is on record as 0.3128. Moreover, the “Fes mean of log2(enrichment)” value in [11] is -1.191. Besides, the “mean of log2(reference)” value in [12] is -1.437. Moreover, the “mean of log2(reference)” value in assay [13] is given as -1.231. Besides, in assay [14], the “mean of log2(reference)” value is -2.084. The “mean of log2(reference)” value in assay [15] is listed as -1.13. The “mean of log2(reference)” value in assay [16] is reported as -1.316. This substance yielded a ref. mean in [16] (pTyr-Var library, reference peptide enrichment, mean of n = 4) of 0.4184. The “mean of log2(reference)” value in assay [17] is given as -1.119. Also, the “mean of log2(reference)” value in [18] was -0.8121. In [19], the “mean of log2(reference)” value was -0.5728.

One may read the Km as the concentration of substrate that gives half-maximal velocity.

These data come from publication PMC10065799, “High-throughput profiling of sequence recognition by tyrosine kinases and SH2 domains using bacterial peptide display” (eLife, 2023).
